{"source": "patent US20230031406A1", "about": "“COMPOUNDS AND COMPOSITIONS FOR TREATING CONDITIONS ASSOCIATED WITH NLRP ACTIVITY” (Novartis AG, priority 2018, published 2023)", "test_system": "PMA-differentiated THP-1 cells", "test": "IL-1β production in PMA-differentiated THP-1 cells stimulated with gramicidin (hTHP-1 assay containing 2% fetal bovine serum; Procedures 1 and 2)", "assay_type": "cell-based, human", "conditions": "2% fetal bovine serum", "outline": "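THP-1 cells were differentiated with PMA (20 ng/ml, 16-18 h), detached, and plated at 50,000 cells/well in RPMI 1640 with 2% FBS. They were pre-treated with compound (0.0017–100 μM, 0.37% DMSO) for 1 h, then stimulated with gramicidin (5 μM) for 2 h. Supernatant IL-1β was measured by HTRF.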", "key": {"[1]": {"conditions": "Homo sapiens, THP-1, Table B2, numeric bounds, read-out: hTHP-1 IC50"}, "[2]": {"conditions": "Table B2, class symbols, read-out: hTHP-1 IC50"}, "[3]": {"conditions": "Table B3, hTHP-1 assay, class symbols, read-out: IC50"}, "[4]": {"conditions": "Homo sapiens, THP-1, Table B2, class symbols, read-out: hTHP-1 IC50"}, "[5]": {"conditions": "Homo sapiens, THP-1, Table B3, hTHP-1 assay, class symbols, read-out: IC50"}, "[6]": {"conditions": "Table B1, class symbols, read-out: Average IC50 of compounds in hTHP-1 assay: hTHP-1 IC50"}, "[7]": {"conditions": "Homo sapiens, THP-1, Table B1, class symbols, read-out: Average IC50 of compounds in hTHP-1 assay: hTHP-1 IC50"}, "[8]": {"conditions": "Table B1, numeric bounds, read-out: Average IC50 of compounds in hTHP-1 assay: hTHP-1 IC50"}}, "note": "Where two headings read alike, the source gives them in different places.", "data": [{"smiles": "Cc1c(C(C)(C)C)nc2c(c1NC(=O)N=S(N)(=O)c1cc(C(C)(C)O)cs1)CCC2", "note": "(single isomer, unassigned) [Compound 657a, (S) or (R)-N′-((2-(tert-butyl)-3-methyl-6,7-dihydro-5H-cyclopenta[b]pyridin-4-yl)carbamoyl)-4-(2-hydroxypropan-2-yl)thiophene-2-sulfonimidamide]", "values": [{"measurement": "IC50", "setting": "[1]", "result": "> 30", "unit": "µM"}]}, {"smiles": "CC(C)c1cnc(F)c(C(C)C)c1NC(=O)N=S(N)(=O)c1cnc(C(C)(C)O)s1", "note": "(single isomer, unassigned) [Compound 115b, (R) or (S)-N′-((2-fluoro-3,5-diisopropylpyridin-4-yl)carbamoyl)-2-(2-hydroxypropan-2-yl)thiazole-5-sulfonimidamide]", "values": [{"measurement": "IC50", "setting": "[2]", "result": "1 to 5", "unit": "µM"}]}, {"smiles": "CC(C)(O)c1csc(S(N)(=O)=NC(=O)Nc2c3c(nc(C(F)(F)F)c2C2CC2)CCC3)c1", "note": "(single isomer, unassigned) [Example 646, (R) or (S)-N′-((3-((3-2-(trifluoromethyl)-6,7-dihydro-5H-cyclopenta[b]pyridin-4-yl)carbamoyl)-4-(2-hydroxypropan-2-yl)thiophene-2-sulfonimidamide]", "values": [{"measurement": "IC50", "setting": "[3]", "result": "0.04 to 0.2", "unit": "µM"}]}, {"smiles": "CC(C)(O)c1cc(F)c([S@@](N)(=O)=NC(=O)Nc2c3c(nc(C4CC4)c2C2CC2)CCC3)s1", "note": "[Compound 727a]", "values": [{"measurement": "IC50", "setting": "[4]", "result": "1 to 5", "unit": "µM"}]}, {"smiles": "CCc1c(C(F)(F)F)nc2c(c1NC(=O)N=S(N)(=O)c1cnc(C(C)(C)O)s1)CCC2", "note": "(centres unmarked) [Compound 610, N′-((3-ethyl-2-(trifluoromethyl)-6,7-dihydro-5H-cyclopenta[b]pyridin-4-yl)carbamoyl)-2-(2-hydroxypropan-2-yl)thiazole-5-sulfonimidamide]", "values": [{"measurement": "IC50", "setting": "[4]", "result": "5 to 30", "unit": "µM"}]}, {"smiles": "C[C@@H]1CCc2c1nc1c(c2NC(=O)N=[S@@](N)(=O)c2ccn(CF)n2)CCC1", "note": "[Example 573, (R)-1-(fluoromethyl)-N′—(((R)-3-methyl-1,2,3,5,6,7-hexahydrodicyclopenta[b,e]pyridin-8-yl)carbamoyl)-1H-pyrazole-3-sulfonimidamide]", "values": [{"measurement": "IC50", "setting": "[5]", "result": "1 to 5", "unit": "µM"}]}, {"smiles": "CC1(C)CCc2c1nc1c(c2NC(=O)N=S(N)(=O)c2sc(C(O)(CO)CO)nc2CO)CCC1", "note": "(centres unmarked) [Compound 985b]", "values": [{"measurement": "IC50", "setting": "[5]", "result": "0.2 to 1", "unit": "µM"}]}, {"smiles": "CN(C)Cc1ccc(S(N)(=O)=NC(=O)Nc2c3c(nc4c2CCC4)CCC3)cc1", "note": "(single isomer, unassigned) [Compound 130a, (S) or (R)-4-((dimethylamino)methyl)-N′-((1,2,3,5,6,7-hexahydrodicyclo-penta[b,e]pyridin-8-yl)carbamoyl)benzene-sulfonamidamide]", "values": [{"measurement": "IC50", "setting": "Homo sapiens, THP-1, Table B1, numeric bounds, read-out: Average IC50 of compounds in hTHP-1 assay: hTHP-1 IC50", "result": "> 30", "unit": "µM"}]}, {"smiles": "CCc1nc2c(c(NC(=O)N=S(N)(=O)c3cc(C(C)(C)O)cs3)c1C1CC1)CCC2", "note": "(centres unmarked) [Compound 654, N′-((3-cyclopropyl-2-ethyl-6,7-dihydro-5H-cyclopenta[b]pyridin-4-yl)carbamoyl)-4-(2-hydroxypropan-2-yl)thiophene-2-sulfonimidamide]", "values": [{"measurement": "IC50", "setting": "[4]", "result": "0.2 to 1", "unit": "µM"}]}, {"smiles": "CC(C)(O)c1cnc(S(N)(=O)=NC(=O)Nc2c3c(nc4c2CCC42CC2)CCC3)s1", "note": "(single isomer, unassigned) [Compound 683b, (S) or (R)-5-(2-Hydroxypropan-2-yl)-N′-((1′,5′,6′,7′-tetrahydro-2′H-spiro[cyclopropane-1,3′-dicyclopenta[b,e]pyridin]-8′-yl)carbamoyl)thiazole-2-sulfonimidamide]", "values": [{"measurement": "IC50", "setting": "[2]", "result": "5 to 30", "unit": "µM"}]}, {"smiles": "Cc1c(C(C)C)nc2c(c1NC(=O)N=S(N)(=O)c1cnc(C(C)(C)O)s1)CCC2", "note": "(centres unmarked) [Compound 650, 2-(2-Hydroxypropan-2-yl)-N′-((2-isopropyl-3-methyl-6,7-dihydro-5H-cyclopenta[b]pyridin-4-yl)carbamoyl)thiazole-5-sulfonimidamide]", "values": [{"measurement": "IC50", "setting": "[4]", "result": "0.2 to 1", "unit": "µM"}]}, {"smiles": "CCc1ncc(S(N)(=O)=NC(=O)Nc2c3c(nc4c2CC[C@H]4C)CCC3)s1", "note": "(single isomer, unassigned) [Example 673, (S) or (R)-2-ethyl-N′-(((R)-3-methyl-1,2,3,5,6,7-hexahydrodicyclopenta[b,e]pyridin-8-yl)carbamoyl) thiazole-5-sulfonimidamide]", "values": [{"measurement": "IC50", "setting": "[3]", "result": "5 to 30", "unit": "µM"}]}, {"smiles": "CC(C)(O)c1cc(S(N)(=O)=NC(=O)Nc2c3c(nc4c2CCC4(C)C)CCC3)nn1-c1ccc(F)cc1", "note": "(single isomer, unassigned) [Compound 705a, (S) or (R)-N′-((3,3-dimethyl-1,2,3,5,6,7-hexahydrodicyclopenta [b,e]pyridin-8-yl)carbamoyl)-1-(4-fluorophenyl)-5-(2-hydroxypropan-2-yl)-1H-pyrazole-3-sulfonimidamide]", "values": [{"measurement": "IC50", "setting": "[2]", "result": "5 to 30", "unit": "µM"}]}, {"smiles": "CCn1ccc(S(N)(=O)=NC(=O)Nc2c3c(nc(C4CC4)c2C2CC2)CCC3)n1", "note": "(single isomer, unassigned) [Example 699, (R) or (S)-N′-((2,3-dicyclopropyl-6,7-dihydro-5H-cyclopenta[b]pyridin-4-yl)carbamoyl)-1-ethyl-1H-pyrazole-3-sulfonimidamide]", "values": [{"measurement": "IC50", "setting": "[3]", "result": "0.2 to 1", "unit": "µM"}]}, {"smiles": "CC(C)c1ncc(F)c(C(C)C)c1NC(=O)N=S(N)(=O)c1cc(C(C)(C)O)cs1", "note": "(single isomer, unassigned) [Compound 148b, (S) or (R)-N′-((5-fluoro-2,4-diisopropylpyridin-3-yl)carbamoyl)-4-(2-hydroxypropan-2-yl)thiophene-2-sulfonimidamide]", "values": [{"measurement": "IC50", "setting": "[6]", "result": "1 to 5", "unit": "µM"}]}, {"smiles": "CC(C)(O)c1cc(F)c(S(N)(=O)=NC(=O)Nc2c3c(nc(C4CC4)c2C2CC2)CCC3)s1", "note": "(centres unmarked) [Example 570, N′-((2,3-dicyclopropyl-6,7-dihydro-5H-cyclopenta[b]pyridin-4-yl)calbamoyl)-3-fluoro-5-(2-hydroxypropan-2-yl)thiophene-2-sulfonimidamide]", "values": [{"measurement": "IC50", "setting": "[5]", "result": "0.2 to 1", "unit": "µM"}]}, {"smiles": "CC(C)(O)c1ncc(S(=N)(=O)NC(=O)Nc2c3c(nc4c2CCC4)CCC3)s1", "note": "(centres unmarked) [Compound 128, N-((1,2,3,5,6,7-hexahydrodicyclopenta[b,e]pyridin-8-yl)carbamoyl)-2-(2-hydroxypropan-2-yl)thiazole-5-sulfonimidamide]", "values": [{"measurement": "IC50", "setting": "[7]", "result": "0.2 to 1", "unit": "µM"}]}, {"smiles": "Cc1c(-c2ccccc2)nc2c(c1NC(=O)N=S(N)(=O)c1cnc(C(C)(C)O)s1)CCC2", "note": "(single isomer, unassigned) [Compound 143b, (R) or (S)-2-(2-hydroxy-propan-2-yl)-N′-((3-methyl-2-phenyl-6,7-dihydro-5H-cyclopenta[b]pyridin-4-yl)carbamoyl)thiazole-5-sulfonimidamide]", "values": [{"measurement": "IC50", "setting": "[8]", "result": "> 30", "unit": "µM"}]}, {"smiles": "CC(C)(O)c1cc(S(N)(=O)=NC(=O)Nc2c3c(nc4c2CCC4)CCC3)nn1-c1ccccc1", "note": "(single isomer, unassigned) [Compound 159a, (R) or (S)-N′-((1,2,3,5,6,7-hexahydrodicyclo-penta[b,e]pyridin-8-yl)carbamoyl)-5-(2-hydroxypropan-2-yl)-1-phenyl-1H-pyrazole-3-sulfonimidamide]", "values": [{"measurement": "IC50", "setting": "[6]", "result": "1 to 5", "unit": "µM"}]}, {"smiles": "Cc1nc(C)c(C)c(NC(=O)N=S(N)(=O)c2cnc(C(C)(C)O)s2)c1C", "note": "(single isomer, unassigned) [Compound 133b, (S) or (R)-2-(2-hydroxypropan-2-yl)-N′-((2,3,5,6-tetramethylpyridin-4-yl)carbamoyl)thiazole-5-sulfonimidamide]", "values": [{"measurement": "IC50", "setting": "[8]", "result": "> 30", "unit": "µM"}]}, {"smiles": "NS(=O)(=NC(=O)Nc1c2c(nc3c1CCC3)CCC2)c1nn(C(F)F)cc1F", "note": "(centres unmarked) [Example 735, 1-(Difluoromethyl)-4-fluoro-N′-((1,2,3,5,6,7-hexahydrodicyclopenta[b,e]pyridin-8-yl)carbamoyl)-1H-pyrazole-3-sulfonimidamide]", "values": [{"measurement": "IC50", "setting": "Homo sapiens, THP-1, Table B4, class symbols, read-out: hTHP-1 IC50", "result": "0.2 to 1", "unit": "µM"}]}, {"smiles": "C[C@@H]1CCc2c1nc1c(c2NC(=O)N=S(N)(=O)c2ccn(C)n2)CCC1", "note": "(single isomer, unassigned) [Compound 639a, (S) or (R)-1-Methyl-N′-(((R)-3-methyl-1,2,3,5,6,7-hexahydrodicyclopenta [b,e]pyridin-8-yl)carbamoyl)-1H-pyrazole-3-sulfonimidamide]", "values": [{"measurement": "IC50", "setting": "[1]", "result": "> 30", "unit": "µM"}]}, {"smiles": "Cc1c(C(F)(F)F)nc2c(c1NC(=O)N=S(N)(=O)c1cnc(C(C)(O)CO)s1)CCC2", "note": "(single isomer, unassigned) [Compound 605e, (R, S) or (S, S)-2-(1,2-Dihydroxypropan-2-yl)-N′-((3-methyl-2-(trifluoromethyl)-6,7-dihydro-5H-cyclopenta[b]pyridin-4-yl)carbamoyl) thiazole-5-sulfonimidamide]", "values": [{"measurement": "IC50", "setting": "[2]", "result": "5 to 30", "unit": "µM"}]}, {"smiles": "CCn1cc(F)c(S(N)(=O)=NC(=O)Nc2c3c(nc4c2CC[C@H]4C)CCC3)n1", "note": "(single isomer, unassigned) [Example 670, (S) or (R)-1-ethyl-4-fluoro-N′-(((R)-3-methyl-1,2,3,5,6,7-hexahydrodicyclopenta[b,e]pyridin-8-yl)carbamoyl)-1H-pyrazole-3-sulfonimidamide]", "values": [{"measurement": "IC50", "setting": "[3]", "result": "1 to 5", "unit": "µM"}]}, {"smiles": "CC(C)c1ccnc(C(C)C)c1NC(=O)N=S(N)(=O)c1cnc(C(C)(C)O)s1", "note": "(centres unmarked) [Compound 110, N′-((2,4-diisopropylpyridin-3-yl)carbamoyl)-2-(2-hydroxypropan-2-yl)thiazole-5-sulfonimidamide]", "values": [{"measurement": "IC50", "setting": "[7]", "result": "5 to 30", "unit": "µM"}]}, {"smiles": "Cc1c(C2CCC2)nc2c(c1NC(=O)N=S(N)(=O)c1cc(C(C)(C)O)cs1)CCC2", "note": "(single isomer, unassigned) [Compound 658b, (R) or (S)-N′-((2-cyclobutyl-3-methyl-6,7-dihydro-5H-cyclopenta[b]pyridin-4-yl)carbamoyl)-4-(2-hydroxypropan-2-yl)thiophene-2-sulfonimidamide]", "values": [{"measurement": "IC50", "setting": "[4]", "result": "1 to 5", "unit": "µM"}]}]}
